# Article PMC9740789, “Investigation of In Vitro and In Vivo Metabolism of α-Amanitin in Rats Using Liquid Chromatography-Quadrupole Time-of-Flight Mass Spectrometric Method” (Molecules, 2022)
# Like-named read-outs stand apart in the source and are kept apart here.
# Columns and labels:
# [1] = Semi-mass balance study in rats; type: in vivo, rat; details: for dose excreted: Sprague-Dawley, rat
# Procedure: The excretion characteristic of α-amanitin after IV and PO administration is shown in Table 7, and the time to recovery of α-amanitin profile is shown in Figure 5. The recovery represents the percentage of the excreted amount (mg) to the administrated amount (mg).
# A semi-mass balance study was performed to explore the major elimination route of α-amanitin in rats. A non-radiolabeled α-amanitin was used for the semi-mass balance study which seems acceptable due to low metabolic turn-over of α-amanitin.
# For the semi-mass balance study, the housed rats were prepared with a bile duct cannulation and administrated by IV bolus in a lateral tail vein or by PO at 1 mg/kg for each dosing route. Urine and feces were collected using a metabolic cage (Jeungdo Bio & Plant co., Seoul, Republic of Korea), and bile was collected through a bile duct cannula. The sampling time interval were 0–4, 4–8, 8–24, and 24–48 h after administration. The urine, bile, and feces samples were stored at –20 °C until further analysis.
# [2] = type: in vitro ADME, rat; details: for Long-term stability, mean accuracy / Freeze-thaw stability, mean accuracy / Short-term stability, mean accuracy: rat plasma, LC-qTOF-MS, triplicate or more; for Long-term stability, mean accuracy: 2 weeks, –20 °C; for Freeze-thaw stability, mean accuracy: 3 cycles, –20 °C and RT; for Short-term stability, mean accuracy: 4 h, RT
# Procedure: To evaluate the stability of α-amanitin in rat plasma under the actual experimental environments, some stability tests were also conducted. The accuracy (%) and precision (% CV) of the stability test met the acceptance criteria of ±25%, identifying α-amanitin was stable under the short-term, long-term, and freeze-thaw conditions.
# The method qualification was performed with “fit-for-purpose” criteria which are suitable for discovery stage research. The qualification contained seven levels of STD and three levels of QC in duplicate. […] Preliminary stability tests were performed at low, medium, and high QC in rat plasma. The stability test was performed under three different conditions: a short-term, a long-term, and a freeze-thaw condition. The short-term stability test was conducted at room temperature (RT) for 4 h. The long-term stability was conducted at –20 °C for 2 weeks. The freeze-thaw stability was conducted for three freeze and thaw cycles at –20 °C and RT. The extraction recovery of protein precipitation was evaluated by analyzing the difference between extracted Medium-QC (165 ng/mL) samples and post-extraction QC samples. The post-extraction QC sample was prepared by spiking the α-amanitin after protein precipitation.
# The precision and accuracy of the acceptance criteria for this qualification runs were within ± 25% which are also similar to the discovery-stage bioanalytical criteria in pharmaceutical industry. All experiments were performed in triplicate or more.
# [3] = Rat in vivo MetID in pooled rat plasma; details: pooled rat plasma after IV 1 mg/kg
# Procedure: Therefore, in vitro and in vivo MetID were conducted to explore any possible different metabolites between the two systems. The in vitro and in vivo MetID samples were analyzed by a LC-qTOF-MS, and the data were used to elucidate a metabolite of α-amanitin using PeakView® and MetabolitePilot™. The structure of the metabolite of α-amanitin was predicted by MetabolitePilot™. The fragmentation pattern of the predicted metabolite ion from product ion scan was compared to the fragmentation pattern of the parent ion using PeakView®.
# For rat in vivo MetID, rat plasma samples collected after IV administration of α-amanitin with the dose of 1 mg/kg were pooled according to the Hamilton pooling method. Then 3 μL of DMSO was added to the 300 μL of pooled rat plasma. A control sample was made by mixing 300 μL of blank rat plasma and 3 μL of 0.5 mg/mL α-amanitin. Eight hundred microliter of 50% ACN in MeOH was added to the pooled rat plasma mixture and a control sample, respectively. Then the mixture was centrifuged at 10,000 rpm for 5 min. Then 900 μL of the supernatants was collected to a fresh E-tube and evaporated for 4 h. After evaporation, samples were reconstituted with 120 μL of 50% MeOH with 5 mM ammonium formate. After centrifugation at 10,000 rpm for 5 min, 100 μL of reconstituted sample was transferred to a LC-vial.
# The high-resolution TOF full scan was used for metabolite profiling. […]
structure (smiles),measurement,setting,value
CC[C@H](C)[C@@H]1NC(=O)CNC(=O)[C@@H]2Cc3c([nH]c4cc(O)ccc34)[S@+]([O-])C[C@H](NC(=O)CNC1=O)C(=O)N[C@@H](CC(N)=O)C(=O)N1C[C@H](O)C[C@H]1C(=O)N[C@@H]([C@@H](C)[C@@H](O)CO)C(=O)N2 [α-amanitin],dose excreted,"[1]; feces, bile duct cannulated rats, IV bolus 1 mg/kg, collection 0–48 h, excreted amount/administered amount, unchanged α-amanitin, LC-qTOF-MS, read-out: Recovery in feces",< 0.01%
same,dose excreted,"[1]; feces, bile duct cannulated rats, PO 1 mg/kg, collection 0–48 h, excreted amount/administered amount, unchanged α-amanitin, LC-qTOF-MS, read-out: Recovery in feces",22%
same,dose excreted,"[1]; urine, bile duct cannulated rats, IV bolus 1 mg/kg, collection 0–48 h, excreted amount/administered amount, unchanged α-amanitin, LC-qTOF-MS, read-out: Recovery in urine",67.9%
same,dose excreted,"[1]; urine, bile duct cannulated rats, PO 1 mg/kg, collection 0–48 h, excreted amount/administered amount, unchanged α-amanitin, LC-qTOF-MS, read-out: Recovery in urine",1.45%
same,dose excreted,"[1]; bile duct cannulated rats, IV bolus 1 mg/kg, collection 0–48 h, excreted amount/administered amount, unchanged α-amanitin, LC-qTOF-MS, read-out: Recovery in bile",1%
same,dose excreted,"[1]; bile duct cannulated rats, PO 1 mg/kg, collection 0–48 h, excreted amount/administered amount, unchanged α-amanitin, LC-qTOF-MS, read-out: Recovery in bile",0.05%
same,dose excreted,"[1]; rats, IV 1 mg/kg, urine + bile + feces, 0–48 h, read-out: Total recovery",68.9%
same,dose excreted,"[1]; rats, PO 1 mg/kg, urine + bile + feces, 0–48 h, read-out: Total recovery",23.5%
same,Time within which most of the administered α-amanitin was excreted in urine,"[1]; rats, IV 1 mg/kg",≤ 8 h
same,"Long-term stability, mean accuracy",[2]; high QC 1820 ng/mL,103%
same,"Long-term stability, mean accuracy",[2]; low QC 15.0 ng/mL,106%
same,"Long-term stability, mean accuracy",[2]; medium QC 165 ng/mL,118%
same,"Freeze-thaw stability, mean accuracy",[2]; high QC 1820 ng/mL,114%
same,"Freeze-thaw stability, mean accuracy",[2]; low QC 15.0 ng/mL,94.9%
same,"Freeze-thaw stability, mean accuracy",[2]; medium QC 165 ng/mL,103%
same,"Short-term stability, mean accuracy",[2]; high QC 1820 ng/mL,95.7%
same,"Short-term stability, mean accuracy",[2]; low QC 15.0 ng/mL,81.6%
same,"Short-term stability, mean accuracy",[2]; medium QC 165 ng/mL,80.5%
same,Stability in rat plasma (in words),"[2]; short-term, long-term, and freeze-thaw conditions, acceptance criteria ±25%",stable
same,Other metabolites in in vivo rat plasma,[3],no other significant metabolites
